Data taken from patent US11807644B2 (PMV Pharmaceuticals, Inc., priority 2020, dated 2023).

Each compound was assayed against T1, recombinant His-tag Y220C p53 DBD protein (Homo sapiens, UniProt P04637, Y220C) (assay: In vitro DNA binding activity assay (TR-FRET): binding of His-tag Y220C p53 DBD to biotin-labeled consensus DNA). Conditions: SC150 = concentration to increase DNA binding by […], His-tag Y220C p53 DBD, biotin-labeled consensus DNA.
T1 construct: recombinant His-tag Y220C p53 DBD protein (amino acids #˜94-312)
Assay type: biochemical

Compound	Y220C SC150 (μM)
CN1CC[C@@H](Nc2cccc3c2cc(-c2noc(CNC(=O)c4ccc(N5CCC(F)(F)CC5)cc4)n2)n3CC(F)(F)F)[C@@H](F)C1 [Compound 256B, 4-(4,4-difluoropiperidin-1-yl)-N-{[3-(4-{[(3S,4R)-3-fluoro-1-methylpiperidin-4-yl]amino}-1-(2,2,2-trifluoroethyl)-1H-indol-2-yl)-1,2,4-oxadiazol-5-yl]methyl}benzamide]	* (* = 0 μM ≤ SC150 < 0.1 μM)
CC(C)n1cncc1C(=O)NCc1nc(-c2cc3c(N[C@@H]4CCN(C)C[C@@H]4F)cccc3n2CC(F)(F)F)no1 [Compound 257B, N-{[3-(4-{[(3S,4R)-3-fluoro-1-methylpiperidin-4-yl]amino}-1-(2,2,2-trifluoroethyl)-1H-indol-2-yl)-1,2,4-oxadiazol-5-yl]methyl}-1-(propan-2-yl)-1H-imidazole-5-carboxamide]	* (* = 0 μM ≤ SC150 < 0.1 μM)
CN1CC[C@@H](Nc2cccc3c2cc(-c2noc(CNC(=O)c4ccc5[nH]ccc5c4)n2)n3CC(F)(F)F)[C@@H](F)C1 [Compound 258B, N-{[3-(4-{[(3S,4R)-3-fluoro-1-methylpiperidin-4-yl]amino}-1-(2,2,2-trifluoroethyl)-1H-indol-2-yl)-1,2,4-oxadiazol-5-yl]methyl}-1H-indole-5-carboxamide]	* (* = 0 μM ≤ SC150 < 0.1 μM)
CN1CC[C@@H](Nc2cccc3c2cc(-c2noc(CNC(=O)c4ccc5c(ccn5C)c4)n2)n3CC(F)(F)F)[C@@H](F)C1 [Compound 259B, N-{[3-(4-{[(3S,4R)-3-fluoro-1-methylpiperidin-4-yl]amino}-1-(2,2,2-trifluoroethyl)-1H-indol-2-yl)-1,2,4-oxadiazol-5-yl]methyl}-1-methyl-1H-indole-5-carboxamide]	* (* = 0 μM ≤ SC150 < 0.1 μM)
CN1CC[C@@H](Nc2cccc3c2cc(-c2noc(CNC(=O)c4ccc(N5CCOCC5)cc4)n2)n3CC(F)(F)F)[C@@H](F)C1 [Compound 260B, N-{[3-(4-{[(3S,4R)-3-fluoro-1-methylpiperidin-4-yl]amino}-1-(2,2,2-trifluoroethyl)-1H-indol-2-yl)-1,2,4-oxadiazol-5-yl]methyl}-4-(morpholin-4-yl)benzamide]	* (* = 0 μM ≤ SC150 < 0.1 μM)
CN1CC[C@@H](Nc2cccc3c2cc(-c2noc(CNC(=O)c4cccc(N5CCOCC5)c4)n2)n3CC(F)(F)F)[C@@H](F)C1 [Compound 262B, N-{[3-(4-{[(3S,4R)-3-fluoro-1-methylpiperidin-4-yl]amino}-1-(2,2,2-trifluoroethyl)-1H-indol-2-yl)-1,2,4-oxadiazol-5-yl]methyl}-3-(morpholin-4-yl)benzamide]	* (* = 0 μM ≤ SC150 < 0.1 μM)
CN1CC[C@@H](Nc2cccc3c2cc(-c2noc(CNC(=O)c4cccc(N5CCCC5)c4)n2)n3CC(F)(F)F)[C@@H](F)C1 [Compound 263B, N-{[3-(4-{[(3S,4R)-3-fluoro-1-methylpiperidin-4-yl]amino}-1-(2,2,2-trifluoroethyl)-1H-indol-2-yl)-1,2,4-oxadiazol-5-yl]methyl}-3-(pyrrolidin-1-yl)benzamide]	* (* = 0 μM ≤ SC150 < 0.1 μM)
CN(C)C[C@@H]1C[C@H]1C(=O)NCc1nc(-c2cc3c(N[C@@H]4CCN(C)C[C@@H]4F)cccc3n2CC(F)(F)F)no1 [Compound 264B, (1R,2R)-2-[(dimethylamino)methyl]-N-{[3-(4-{[(3S,4R)-3-fluoro-1-methylpiperidin-4-yl]amino}-1-(2,2,2-trifluoroethyl)-1H-indol-2-yl)-1,2,4-oxadiazol-5-yl]methyl}cyclopropane-1-carboxamide]	* (* = 0 μM ≤ SC150 < 0.1 μM)
CN1CC[C@@H](Nc2cccc3c2cc(-c2noc(CNC(=O)[C@@H]4C[C@H]4CN4CCCC4)n2)n3CC(F)(F)F)[C@@H](F)C1 [Compound 265B, (1R,2R)-N-{[3-(4-{[(3S,4R)-3-fluoro-1-methylpiperidin-4-yl]amino}-1-(2,2,2-trifluoroethyl)-1H-indol-2-yl)-1,2,4-oxadiazol-5-yl]methyl}-2-[(pyrrolidin-1-yl)methyl]cyclopropane-1-carboxamide]	* (* = 0 μM ≤ SC150 < 0.1 μM)
Cc1c[nH]c2ccc(C(=O)NCc3nc(-c4cc5c(N[C@@H]6CCN(C)C[C@@H]6F)cccc5n4CC(F)(F)F)no3)cc12 [Compound 266B, N-{[3-(4-{[(3S,4R)-3-fluoro-1-methylpiperidin-4-yl]amino}-1-(2,2,2-trifluoroethyl)-1H-indol-2-yl)-1,2,4-oxadiazol-5-yl]methyl}-3-methyl-1H-indole-5-carboxamide]	* (* = 0 μM ≤ SC150 < 0.1 μM)
CN1CC[C@@H](Nc2cccc3c2cc(-c2noc(CNC(=O)c4ccc5cc[nH]c5c4)n2)n3CC(F)(F)F)[C@@H](F)C1 [Compound 267B, N-{[3-(4-{[(3S,4R)-3-fluoro-1-methylpiperidin-4-yl]amino}-1-(2,2,2-trifluoroethyl)-1H-indol-2-yl)-1,2,4-oxadiazol-5-yl]methyl}-1H-indole-6-carboxamide]	* (* = 0 μM ≤ SC150 < 0.1 μM)
COCCn1cncc1C(=O)NCc1nc(-c2cc3c(N[C@@H]4CCN(C)C[C@@H]4F)cccc3n2CC(F)(F)F)no1 [Compound 268B, N-{[3-(4-{[(3S,4R)-3-fluoro-1-methylpiperidin-4-yl]amino}-1-(2,2,2-trifluoroethyl)-1H-indol-2-yl)-1,2,4-oxadiazol-5-yl]methyl}-1-(2-methoxyethyl)-1H-imidazole-5-carboxamide]	* (* = 0 μM ≤ SC150 < 0.1 μM)
CC[C@@H]1C[C@H]1C(=O)NCc1nc(-c2cc3c(N[C@@H]4CCN(C)C[C@@H]4F)cccc3n2CC(F)(F)F)no1 [Compound 269B, (1R,2R)-2-ethyl-N-{[3-(4-{[(3S,4R)-3-fluoro-1-methylpiperidin-4-yl]amino}-1-(2,2,2-trifluoroethyl)-1H-indol-2-yl)-1,2,4-oxadiazol-5-yl]methyl}cyclopropane-1-carboxamide]	* (* = 0 μM ≤ SC150 < 0.1 μM)
CN1CC[C@@H](Nc2cccc3c2cc(-c2noc(CNC(=O)c4cncn4C(C)(C)C)n2)n3CC(F)(F)F)[C@@H](F)C1 [Compound 270B, 1-tert-butyl-N-{[3-(4-{[(3S,4R)-3-fluoro-1-methylpiperidin-4-yl]amino}-1-(2,2,2-trifluoroethyl)-1H-indol-2-yl)-1,2,4-oxadiazol-5-yl]methyl}-1H-imidazole-5-carboxamide]	* (* = 0 μM ≤ SC150 < 0.1 μM)
CCN1CC[C@@H](Nc2cccc3c2cc(-c2noc(CNC(=O)c4ccn(CCOC)c4)n2)n3CC(F)(F)F)[C@@H](F)C1 [Compound 272B, N-{[3-(4-{[(3S,4R)-1-ethyl-3-fluoropiperidin-4-yl]amino}-1-(2,2,2-trifluoroethyl)-1H-indol-2-yl)-1,2,4-oxadiazol-5-yl]methyl}-1-(2-methoxyethyl)-1H-pyrrole-3-carboxamide]	* (* = 0 μM ≤ SC150 < 0.1 μM)
CCN1CC[C@H](Nc2cccc3c2cc(-c2noc(CNC(=O)c4ccn(CCOC)c4)n2)n3CC(F)(F)F)[C@H](F)C1 [Compound 273B, N-{[3-(4-{[(3R,4S)-1-ethyl-3-fluoropiperidin-4-yl]amino}-1-(2,2,2-trifluoroethyl)-1H-indol-2-yl)-1,2,4-oxadiazol-5-yl]methyl}-1-(2-methoxyethyl)-1H-pyrrole-3-carboxamide]	* (* = 0 μM ≤ SC150 < 0.1 μM)
